Data: ChEMBL document CHEMBL1201862, “PubChem BioAssay data set” (2004)
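Assay format: 96-well plates, 48-hour exposure. GI50 = concentration required for 50% inhibition of growth.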 Activity calls are given as the source filed them. Cut-off read from the data, not from the text of the source: active = GI50 up to about 1.1 µM and inactive = higher.

Tests used:
Assay in all cases: DTP human tumour cell line panel, 48 h
ACHN = test system: ACHN
CCRF-CEM = test system: CCRF-CEM
EKVX = test system: EKVX
HL-60 = test system: HL-60
HOP-62 = test system: HOP-62
KM-20L2 = test system: KM-20L2
KM12 = test system: KM12
M14 = test system: M14
Malme-3M = test system: Malme-3M
NCI-H460 = test system: NCI-H460
OVCAR-3 = test system: OVCAR-3
OVCAR-5 = test system: OVCAR-5
OVCAR-8 = test system: OVCAR-8
SK-MEL-28 = test system: SK-MEL-28
SN12C = test system: SN12C
TK-10 = test system: TK-10
UACC-62 = test system: UACC-62
UO-31 = test system: UO-31
OVCAR-4 = test system: OVCAR-4
SNB-75 = test system: SNB-75

| SMILES | GI50 (ACHN) | GI50 (CCRF-CEM) | GI50 (EKVX) | GI50 (HL-60) | GI50 (HOP-62) | GI50 (KM-20L2) | GI50 (KM12) | GI50 (M14) | GI50 (Malme-3M) | GI50 (NCI-H460) | GI50 (OVCAR-3) | GI50 (OVCAR-5) | GI50 (OVCAR-8) | GI50 (SK-MEL-28) | GI50 (SN12C) | GI50 (TK-10) | GI50 (UACC-62) | GI50 (UO-31) | GI50 (OVCAR-4) | GI50 (SNB-75) |
| --- | --- | --- | --- | --- | --- | --- | --- | --- | --- | --- | --- | --- | --- | --- | --- | --- | --- | --- | --- | --- |
| Nc1c(-c2ccccc2[N+](=O)[O-])nc2ccccn12 | > 100 µM (inactive) | > 100 µM (inactive) | > 100 µM (inactive) | > 100 µM (inactive) | > 100 µM (inactive) | > 100 µM (inactive) | > 100 µM (inactive) | > 100 µM (inactive) | > 100 µM (inactive) | > 100 µM (inactive) | > 100 µM (inactive) | > 100 µM (inactive) | > 100 µM (inactive) | > 100 µM (inactive) | > 100 µM (inactive) | > 100 µM (inactive) | > 100 µM (inactive) | > 100 µM (inactive) |  |  |
| O=c1n(Cc2ccccc2)c2ccccc2n1CC1CS1 (stereo not given) | > 100 µM (inactive) | > 100 µM (inactive) | > 100 µM (inactive) | > 100 µM (inactive) | > 100 µM (inactive) | > 100 µM (inactive) | > 100 µM (inactive) | > 100 µM (inactive) | > 100 µM (inactive) |  | > 100 µM (inactive) | > 100 µM (inactive) | > 100 µM (inactive) | > 100 µM (inactive) | > 100 µM (inactive) | > 100 µM (inactive) | > 100 µM (inactive) | > 100 µM (inactive) | > 100 µM (inactive) | 58.6 µM (inactive) |
| COc1ccc(C2C(Cl)C(=O)N2NC(=O)c2ccc(NC(C)=O)cc2)cc1OC (stereo not given) | > 100 µM (inactive) | > 100 µM (inactive) |  | > 100 µM (inactive) | > 100 µM (inactive) |  | > 100 µM (inactive) |  | > 100 µM (inactive) | > 100 µM (inactive) | > 100 µM (inactive) | > 100 µM (inactive) | > 100 µM (inactive) | > 100 µM (inactive) |  | > 100 µM (inactive) | > 100 µM (inactive) | > 100 µM (inactive) |  | > 100 µM (inactive) |
| CCn1cnnc1-c1nsc2ccccc12 | > 100 µM (inactive) | > 100 µM (inactive) | 26.9 µM (inactive) | > 100 µM (inactive) | > 100 µM (inactive) | > 100 µM (inactive) | > 100 µM (inactive) | > 100 µM (inactive) |  | > 100 µM (inactive) | 65.9 µM (inactive) | 7.52 µM (inactive) | > 100 µM (inactive) | > 100 µM (inactive) | > 100 µM (inactive) | > 100 µM (inactive) | > 100 µM (inactive) | > 100 µM (inactive) | > 100 µM (inactive) | 0.369 µM (active) |
| CC1(C)OCC=CCO1 | > 100 µM (inactive) | 62.5 µM (inactive) | > 100 µM (inactive) | 71.4 µM (inactive) | > 100 µM (inactive) |  | > 100 µM (inactive) | > 100 µM (inactive) | > 100 µM (inactive) | > 100 µM (inactive) | 59.7 µM (inactive) | > 100 µM (inactive) | > 100 µM (inactive) | > 100 µM (inactive) | > 100 µM (inactive) | > 100 µM (inactive) | > 100 µM (inactive) | > 100 µM (inactive) | > 100 µM (inactive) | > 100 µM (inactive) |
